Test results from paper PMC9313426, “CDI Exerts Anti-Tumor Effects by Blocking the FoxM1-DNA Interaction” (Biomedicines, 2022).

Target: T1, FoxM1 (Homo sapiens, UniProt Q08050)
T1 sequence (Q08050 222-360 limits assumed): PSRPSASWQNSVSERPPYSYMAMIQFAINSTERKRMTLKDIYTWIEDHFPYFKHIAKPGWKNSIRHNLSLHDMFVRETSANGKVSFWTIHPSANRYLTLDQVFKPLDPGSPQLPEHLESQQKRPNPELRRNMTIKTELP
Assay: TR-FRET FoxM1-DBD/biotinylated dsDNA binding inhibition assay

| IC50 | SMILES |
| --- | --- |
| 3.7 ± 0.9 µM | Nc1c(C(=O)Nc2ccc(F)cc2)sc2nc(-c3cccs3)cc(C(F)(F)F)c12 [FDI-6] |
| 4.9 ± 1.5 µM | CC(C)C1=C[C@@]23CC[C@@H]4[C@](C)(CCC[C@@]4(C)C(=O)O)[C@H]2C[C@@H]1[C@H]1C(=O)C=C(Cl)C(=O)[C@H]13 [CDI, (4aR,4bS,6aR,7R,10aR,10bR,12R,12aR)-3-Chloro-4,4a,5,6,6a,7,8,9,10,10a,10b,11,12,12a-tetradecahydro-7,10a-dimethyl-13-(1-methylethyl)-1,4-dioxo-1H-4b,12-ethenochrysene-7-carboxylic acid] |
